Measured values published in patent US11986532B2 (Arvinas Operations, Inc., priority 2021, dated 2024).
Like-named read-outs stand apart in the source and are kept apart here.

Molecular target: T1, BCL6 (Homo sapiens, UniProt P41182)
T1 construct: endogenous in cells; host or cells: T47D breast cancer epithelial cells
Assay: Immunofluorescence protocol for high content imaging of BCL6 (degradation) in T47D cells, 3 days compound treatment
Assay type: cell-based
Details: for DC50: read-out: Mean DC50 (nM)* category; for Dmax: read-out: Mean Dmax (%)** category
Summary of the method: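 Read-out: high-content imaging of anti-BCL6 immunofluorescence (Alexa-488 secondary) with CellMask and Hoechst counterstains, 10×, 4 fields/well. Cells had 3 days of compound exposure at 37° C, 5% CO2, 11-point 3-fold series from a final top of 0.1 or 1 μM.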

[1] = T47D cells, 3 days compound treatment

| SMILES | DC50 [1] [nM] | Dmax [1] [%] | Dmax (T47D) [%] | DC50 [nM] |
| --- | --- | --- | --- | --- |
| CNC(=O)COc1cc2cc(Nc3nc(N4CCC(O[C@H]5CC[C@H](N(C)C6CN(c7cccc8c7C(=O)N(C7CCC(=O)NC7=O)C8=O)C6)CC5)CC4)ncc3Cl)ccc2n(C(C)C)c1=O (some centres unmarked) [Compound 108, 2-[(6-{[5-chloro-2-(4-{[(1r,4r)-4-({1-[2-(2,6-dioxopiperidin-3-yl)-1,3-dioxo-2,3-dihydro-1H-isoindol-4-yl]azetidin-3-yl}(methyl)amino)cyclohexyl]oxy}piperidin-1-yl)pyrimidin-4-yl]amino}-2-oxo-1-(propan-2-yl)-1,2-dihydroquinolin-3-yl)oxy]-N-methylacetamide] | < 10 | 50 to 70 |  |  |
| CNC(=O)COc1cc2cc(Nc3nc(N4CCC(O[C@H]5C[C@H](N6CCN(C7CN(c8ccc9c(c8F)CN(C8CCC(=O)NC8=O)C9=O)C7)CC6)C5)CC4)ncc3Cl)ccc2n(C(C)C)c1=O (some centres unmarked) [Compound 422, 2-({6-[(5-chloro-2-{4-[(1r,3r)-3-(4-{1-[2-(2,6-dioxopiperidin-3-yl)-4-fluoro-1-oxo-2,3-dihydro-1H-isoindol-5-yl]azetidin-3-yl}piperazin-1-yl)cyclobutoxy]piperidin-1-yl}pyrimidin-4-yl)amino]-2-oxo-1-(propan-2-yl)-1,2-dihydroquinolin-3-yl}oxy)-N-methylacetamide] |  |  | ≥ 70 | < 10 |
| CNC(=O)COc1cc2cc(Nc3nc(N4CCC(F)(CN5CCC6(CC5)CCN(c5cc(F)cc7c5CN(C5CCC(=O)NC5=O)C7=O)CC6)CC4)ncc3Cl)ccc2n(C(C)C)c1=O (centres unmarked) [Compound 73, 2-{[6-({5-chloro-2-[4-({9-[2-(2,6-dioxopiperidin-3-yl)-6-fluoro-1-oxo-2,3-dihydro-1H-isoindol-4-yl]-3,9-diazaspiro [5.5]undecan-3-yl}methyl)-4-fluoropiperidin-1-yl]pyrimidin-4-yl}amino)-2-oxo-1-(propan-2-yl)-1,2-dihydroquinolin-3-yl]oxy}-N-methylacetamide] | < 10 | 50 to 70 |  |  |
| CNC(=O)COc1cc2cc(Nc3nc(N4CCC(O[C@H]5C[C@H](N6CCN(c7ccc8c(c7)CN(C7CCC(=O)NC7=O)C8=O)C(C)(C)C6)C5)CC4)ncc3Cl)ccc2n(C(C)C)c1=O (some centres unmarked) [Compound 170, 2-({6-[(5-chloro-2-{4-[(1r,3r)-3-{4-[2-(2,6-dioxopiperidin-3-yl)-1-oxo-2,3-dihydro-1H-isoindol-5-yl]-3,3-dimethylpiperazin-1-yl}cyclobutoxy]piperidin-1-yl}pyrimidin-4-yl)amino]-2-oxo-1-(propan-2-yl)-1,2-dihydroquinolin-3-yl}oxy)-N-methylacetamide] | < 10 | ≥ 70 |  |  |
| CNC(=O)COc1cc2cc(Nc3nc(N4CCC(O[C@H]5C[C@H](N6CCC7(c8ccc9c(c8F)CN(C8CCC(=O)NC8=O)C9=O)CC7C6)C5)CC4)ncc3Cl)ccc2n(C(C)C)c1=O (some centres unmarked) [Compound 283, 2-({6-[(5-chloro-2-{4-[(1r,3r)-3-{6-[2-(2,6-dioxopiperidin-3-yl)-4-fluoro-1-oxo-2,3-dihydro-1H-isoindol-5-yl]-3-azabicyclo[4.1.0]heptan-3-yl}cyclobutoxy]piperidin-1-yl}pyrimidin-4-yl)amino]-2-oxo-1-(propan-2-yl)-1,2-dihydroquinolin-3-yl}oxy)-N-methylacetamide] |  |  | ≥ 70 | < 10 |
| CNC(=O)COc1cc2cc(Nc3nc(N4CCC(O[C@H]5C[C@H](N6CCC(c7ccc8c(n7)CN(C7CCC(=O)NC7=O)C8=O)CC6)C5)CC4)ncc3Cl)ccc2n(C(C)C)c1=O (some centres unmarked) [Compound 214, 2-({6-[(5-chloro-2-{4-[(1r,3r)-3-{4-[6-(2,6-dioxopiperidin-3-yl)-5-oxo-5H,6H,7H-pyrrolo[3,4-b]pyridin-2-yl]piperidin-1-yl}cyclobutoxy]piperidin-1-yl}pyrimidin-4-yl)amino]-2-oxo-1-(propan-2-yl)-1,2-dihydroquinolin-3-yl}oxy)-N-methylacetamide] |  |  | 50 to 70 | < 10 |
| CNC(=O)COc1cc2cc(Nc3nc(N4CCC(O[C@H]5C[C@H](N6CCN(c7cc(OC)c8c(c7)C(=O)N(C7CCC(=O)NC7=O)C8=O)CC6)C5)CC4)ncc3Cl)ccc2n(C(C)C)c1=O (some centres unmarked) [Compound 379, 2-({6-[(5-chloro-2-{4-[(1r,3r)-3-{4-[2-(2,6-dioxopiperidin-3-yl)-7-methoxy-1,3-dioxo-2,3-dihydro-1H-isoindol-5-yl]piperazin-1-yl}cyclobutoxy]piperidin-1-yl}pyrimidin-4-yl)amino]-2-oxo-1-(propan-2-yl)-1,2-dihydroquinolin-3-yl}oxy)-N-methylacetamide] |  |  | 50 to 70 | < 10 |
| CNC(=O)COc1cc2cc(Nc3nc(N4CCN(CC5CCC6(CC5)CN(c5cc(OC)cc7c5C(=O)N(C5CCC(=O)NC5=O)C7=O)C6)CC4)ncc3Cl)ccc2n(C(C)C)c1=O (centres unmarked) [Compound 10, 2-{[6-({5-chloro-2-[4-({2-[2-(2,6-dioxopiperidin-3-yl)-6-methoxy-1,3-dioxo-2,3-dihydro-1H-isoindol-4-yl]-2-azaspiro[3.5]nonan-7-yl}methyl)piperazin-1-yl]pyrimidin-4-yl}amino)-2-oxo-1-(propan-2-yl)-1,2-dihydroquinolin-3-yl]oxy}-N-methylacetamide] | 10 to 50 | 50 to 70 |  |  |
| CNC(=O)COc1cc2cc(Nc3nc(N4CCC(O[C@H]5CC[C@H](Oc6ccc7c(c6)C(=O)N(C6CCC(=O)NC6=O)C7=O)CC5)CC4)ncc3Cl)ccc2n(C(C)C)c1=O (some centres unmarked) [Compound 30, 2-[(6-{[5-chloro-2-(4-{[(1r,4r)-4-{[2-(2,6-dioxopiperidin-3-yl)-1,3-dioxo-2,3-dihydro-1H-isoindol-5-yl]oxy}cyclohexyl]oxy}piperidin-1-yl)pyrimidin-4-yl]amino}-2-oxo-1-(propan-2-yl)-1,2-dihydroquinolin-3-yl)oxy]-N-methylacetamide] | 10 to 50 | 50 to 70 |  |  |
| CNC(=O)COc1cc2cc(Nc3nc(N4CCN(C(C)(C)C5CCN(c6cc7c(cc6F)C(=O)N(C6CCC(=O)NC6=O)C7)CC5)CC4)ncc3Cl)ccc2n(C(C)C)c1=O (centres unmarked) [Compound 68, 2-{[6-({5-chloro-2-[4-(2-{1-[2-(2,6-dioxopiperidin-3-yl)-6-fluoro-1-oxo-2,3-dihydro-1H-isoindol-5-yl]piperidin-4-yl}propan-2-yl)piperazin-1-yl]pyrimidin-4-yl}amino)-2-oxo-1-(propan-2-yl)-1,2-dihydroquinolin-3-yl]oxy}-N-methylacetamide] | < 10 | 50 to 70 |  |  |
| [2H]C([2H])([2H])Oc1c(N2CC3(CCC(OC4CCN(c5ncc(Cl)c(Nc6ccc7c(c6)cc(OCC(=O)NC)c(=O)n7C(C)C)n5)CC4)CC3)C2)ccc2c1CN(C1CCC(=O)NC1=O)C2=O (centres unmarked) [Compound 225, 2-((6-((5-chloro-2-(4-((2-(2-(2,6-dioxopiperidin-3-yl)-4-(methoxy-d3)-1-oxoisoindolin-5-yl)-2-azaspiro[3.5]nonan-7-yl)oxy)piperidin-1-yl)pyrimidin-4-yl)amino)-1-isopropyl-2-oxo-1,2-dihydroquinolin-3-yl)oxy)-N-methylacetamide] |  |  | ≥ 70 | < 10 |

Second part, led by results:

| DC50 [1] [nM] | Dmax [1] [%] | SMILES | Dmax (T47D) [%] | DC50 [nM] |
| --- | --- | --- | --- | --- |
| < 10 | ≥ 70 | CNC(=O)COc1cc2cc(Nc3nc(N4CCC(O[C@H]5C[C@H](N6CCN(c7ccc8c(c7F)CN(C7CCC(=O)NC7=O)C8=O)C[C@@H]6C)C5)CC4)ncc3Cl)ccc2n(C(C)C)c1=O (some centres unmarked) [Compound 178] |  |  |
| < 10 | 50 to 70 | CNC(=O)COc1cc2cc(Nc3nc(N4CCC(CN5CC6(CCN(c7cc8c(c(OC)c7)C(=O)N(C7CCC(=O)NC7=O)C8)CC6)C5)CC4)ncc3Cl)ccc2n(C(C)C)c1=O (centres unmarked) [Compound 115, 2-{[6-({5-chloro-2-[4-({7-[2-(2,6-dioxopiperidin-3-yl)-7-methoxy-1-oxo-2,3-dihydro-1H-isoindol-5-yl]-2,7-diazaspiro[3.5]nonan-2-yl}methyl)piperidin-1-yl]pyrimidin-4-yl}amino)-2-oxo-1-(propan-2-yl)-1,2-dihydroquinolin-3-yl]oxy}-N-methylacetamide] |  |  |
| < 10 | 50 to 70 | CNC(=O)COc1cc2cc(Nc3nc(N4CCC(OC5CN([C@H]6CC[C@@H](c7ccc8c(c7)CN(C7CCC(=O)NC7=O)C8=O)CC6)C5)CC4)ncc3Cl)ccc2n(C(C)C)c1=O (single isomer, unassigned) [Compound 166, 2-[[6-[[5-chloro-2-[4-[1-[4-[2-(2,6-dioxo-3-piperidyl)-1-oxo-isoindolin-5-yl]cyclohexyl]azetidin-3-yl]oxy-1-piperidyl]pyrimidin-4-yl]amino]-1-isopropyl-2-oxo-3-quinolyl]oxy]-N-methyl-acetamide] |  |  |
| < 10 | 50 to 70 | CNC(=O)COc1cc2cc(Nc3nc(N4CCN(CC5CCN(c6cc(OC)cc7c6CN(C6CCC(=O)NC6=O)C7=O)CC5)CC4)ncc3Cl)ccc2n(C(C)C)c1=O (centres unmarked) [Compound 119, 2-{[6-({5-chloro-2-[4-({1-[2-(2,6-dioxopiperidin-3-yl)-6-methoxy-1-oxo-2,3-dihydro-1H-isoindol-4-yl]piperidin-4-yl}methyl)piperazin-1-yl]pyrimidin-4-yl}amino)-2-oxo-1-(propan-2-yl)-1,2-dihydroquinolin-3-yl]oxy}-N-methylacetamide] |  |  |
| 50 to 100 | < 50 | CNC(=O)COc1cc2cc(Nc3nc(N4CCC(OC5CCC(N6CCC(c7cccc8c7C(=O)N(C7CCC(=O)NC7=O)C8=O)CC6)C5)CC4)ncc3Cl)ccc2n(C(C)C)c1=O (centres unmarked) [Compound 148, 2-({6-[(5-chloro-2-{4-[(3-{4-[2-(2,6-dioxopiperidin-3-yl)-1,3-dioxo-2,3-dihydro-1H-isoindol-4-yl]piperidin-1-yl}cyclopentyl)oxy]piperidin-1-yl}pyrimidin-4-yl)amino]-2-oxo-1-(propan-2-yl)-1,2-dihydroquinolin-3-yl}oxy)-N-methylacetamide] |  |  |
